Article PMC5304334, “Antifouling potential of Nature-inspired sulfated compounds” (Scientific Reports, 2017)
“Also recorded” adds a separate entry of the source. Read-outs that look alike come from different tables or passages of the source.

What was measured:
[1] = tested on: Mytilus galloprovincialis plantigrades; experiment: Anti-settlement bioassay with mussel plantigrades (effectiveness and mortality); assay type: in vivo; conditions: for Anti-settlement activity in screening (result in words): 250 and 50 μM, p < 0.05 Dunnett; for Anti-settlement activity in screening (result in words) / Concentration range with significant anti-settlement activity: versus negative control; for EC50, minimum concentration that inhibited 50% of larval settlement / EC50: plantigrades, 18 °C; for EC50: read-out: EC50, minimum concentration that inhibited 50% of larval settlement; for Concentration range with significant anti-settlement activity: concentration-response 1.56–500 μM
Description: (§1) M. galloprovincialis juvenile (0.5 cm shell length approximately) aggregates were collected from mussel beds from the intertidal rocky shore, during low neap tides at Memória beach, Matosinhos, Portugal (41°13′59″N; 8°43′28″W), and immediately transported to the laboratory. M. galloprovincialis plantigrade post-larvae (0.5–2 mm) were screened among the small mussel aggregates in a binocular magnifier (Olympus SZX2-ILLT), gently washed with filtered seawater to remove organic debris and sand particles and isolated in a petri dish with filtered seawater immediately before the bioassays.
(§2) For the screening bioassay, competent M. galloprovincialis plantigrades (showing exploring behavior, ie, moving their foot searching for the appropriate substrate to settle) were selected and exposed to the series of sulfated compounds 1–13 at two concentrations (250 and 50 μM) in 24-well microplates for 15 h, at 18 ± 1 °C, in the darkness. Bioassays time frame was selected based on preliminary bioassays to ensure that the response measured is reflecting the compounds effect. Test solutions were prepared in filtered seawater (previously treated by UV light, and carbon filters and mechanically filtered with […] filter before use) and obtained by dilution of the compounds stock solutions (50 mM) in ultra-pure water. Four well replicates were used per condition with five plantigrades per well and 2.5 mL of test solution. A negative control, with ultra-pure water was included in all bioassays, as well as a positive control with 5 μM CuSO4 (a potent AF agent). At the end of the exposure period, the anti-settlement activity was determined by the presence/absence of byssal threads produced by each individual efficiently attached for all the conditions tested.
(§3) Data from the anti-settlement and antibacterial screenings were analyzed using a one-way analysis of variance (ANOVA) followed by a Dunnett test against the control (p < 0.05). Semi-maximum response concentration that inhibited 50% larval settlement (EC50), semi-maximum response concentration that inhibited 20% bacterial growth (EC20) and the median lethal dose (LC50) for each bioactive compound were assessed using Probit regression analysis. Pearson Goodness-of-fit (Chi-Square) significance was considered at p < 0.05 for all analyses, and 95% lower and upper confidence limits [95% LCL; UCL] were presented. Therapeutic ratio (LC50/EC50) was used to evaluate the effectiveness vs toxicity of compounds[31][53][54]. The software IBM SPSS Statistics 21 was used for statistical analysis.

[2] = tested on: Vibrio fischeri (NRRL-B-11177); experiment: Luminescent Vibrio fischeri ecotoxicity assay (ISO11348); assay type: cell-based; conditions: for Inhibition of light radiation emitted by V. fischeri: 15 min or 30 min contact, up to 1000 mg/L; for EC50: Aliivibrio fischeri
Description: (§4) After 5, 15 and 30 min of exposure, the light emitted as a by-product of Vibrio fischeri cellular respiration was measured at 490 nm. Any inhibition of cellular activity results in a decreased rate of respiration and a corresponding decrease in the rate of luminescence. The decrease of bacterial luminescence measured after 5, 15 or 30 min of exposition was used as test endpoint. Luminescence was measured using a LUMIStox photometer from DR LANGE, after a contact time of 15 min and 30 min at 15 ± 1 °C, taking into account a correction factor, fk, which is a measure of intensity change of control samples during the exposure time.
(§5) The pH of all samples was within the interval 6.0–8.5.

[3] = Anti-settlement bioassay with mussel plantigrades (effectiveness and mortality); assay type: in vivo, Mytilus galloprovincialis; conditions: Mytilus galloprovincialis, in vivo, other: immersion in test solution in filtered seawater; mortality of plantigrades, 15 h, up to 500 μM; read-out: LC50, the median lethal dose
Description: as §1, §2, §3

[4] = Seawater stability under AF assay conditions (HPLC-DAD); assay type: physicochemical; conditions: 250 μM in filtered seawater, 15 h, 18 °C
Description: High performance liquid chromatography with Diode-Array Detection (HPLC-DAD) analyses were carried out on a System SMI Pump Series II (Gloucester, UK) equipped with a Rheodyne 7125 injector fitted with a 20 μL loop, a TSP-UV6000LP detector, and a Chromquest for Windows NT integrator and using a C-18 Nucleosil column (5 μm, 250 × 4.6 mm I.D.), from Macherey-Nagel (Düren, Germany); acetonitrile was of HPLC grade from Merck. HPLC ultrapure water was generated by a Milli-Q system (Millipore, Bedford, MA, USA). The mobile phase used was water with tetrabutylammonium bromide (TBAB, 25 mM) and acetonitrile (38:62) at a constant flow rate of 1.0 mL.min^−1. The mobile phase was filtered ([…]) and degassed for 15 min in an ultrasonic bath before use.
The seawater stability of the three most promising compounds 2, 6, and 12 in the time period (15 h) and temperature (18 °C) of the AF assay was evaluated by HPLC-DAD. Compounds were analyzed at 250 μM (final concentration) in filtered seawater ([…]). Incubations were performed in glass HPLC vials and three independent samples plus respective blank (filtered seawater) and controls (time zero - freshly prepared solutions of compounds) were analyzed.

[5] = target: T1, Electrophorus electric acetylcholinesterase Type V-S (Electrophorus electricus, UniProt O42275); experiment: In vitro acetylcholinesterase activity (Ellman); assay type: biochemical; conditions: 50 μM compound
T1 construct: purchased SIGMA C2888
Description: The potential of compounds 2, 6 and 12 to inhibit acetylcholinesterases activity was evaluated using Electrophorus electric acetylcholinesterase Type V-S (SIGMA C2888, E.C. 3.1.1.7), according to Ellman et al.[47] with some modifications. Briefly, reaction solution containing phosphate buffer 1 M pH 7.2, dithiobisnitrobenzoate (DTNB) 10 mM (acid dithiobisnitrobenzoate and sodium hydrogen carbonate in phosphate buffer) and […] 0.075 M was added to pure acetylcholinesterase enzyme (0.25 U/mL) and each test sulfated compound (final concentration of 50 μM) in quadruplicate. The optical density was measured at 412 nm in a microplate reader during 5 min at 25 °C. A negative control (B) with ultra-pure water and a positive control (C+) with 20 mM eserine also included.

[6] = tested on: Agaricus bisporus tyrosinase; experiment: In vitro tyrosinase inhibition assay; assay type: biochemical; conditions: 50 μM compound
Description: Tyrosinase inhibition assays were conducted using Agaricus bisporus tyrosinase (EC 1.14.18.1) according to Adhikari et al.[50] with slight modifications. The enzymatic reaction follows the catalytic conversion of L-Dopa to dopaquinone and the formation of dopachrome by measuring the absorvance at 475 nm. Briefly, tyrosinase (25 U/mL) is added to 50 mM fosfate buffer pH 6.5 and the sulfated compound at 50 μM. The enzymatic activity was triggered by the addition of L-dopa (25 mM). Kojic acid was included as positive control and ultra-pure water as negative control.

Artemia salina nauplii = Artemia salina nauplii lethality (ecotoxicity) test; assay type: in vivo; conditions: for Mortality of Artemia salina: 250 μM; for Mortality of A. salina nauplii / Toxicity to A. salina: 25, 50, and 250 μM, 48 h; for Toxicity to A. salina: versus negative control
Description: Selected sulfated compounds with AF potential 2, 6, and 12 were tested for general toxicity to nontarget species using the brine shrimp (Artemia salina) nauplii lethality test[51]. Briefly, A. salina eggs were allowed to hatch in nutrient–enriched seawater as nauplii for approximately 48 h at 25 °C. Toxicity tests were performed in the darkness in 96-wells microplates with eight replicates per condition and 15–20 nauplii per well. Serial diluted test solutions of the most promising sulfated AF compounds (25, 50, and 250 μM) were prepared in filtered seawater. K2Cr2O7 (13.6 μM) was included as positive control and ultra-pure water as negative control. Percentage of mortality was determined at 48 h of exposure.

[7] = Luminescent Vibrio fischeri ecotoxicity assay (ISO11348); assay type: cell-based; conditions: Vibrio fischeri; read-out: LC50 Vibrio fischeri
Description: as §4, §5

[8] = Water solubility (statement in discussion); assay type: physicochemical
[9] = V. fischeri luminescence, 30 min contact
[10] = Mytilus galloprovincialis, 15 h, 15 h, 1.56–500 μM
[11] = Mytilus galloprovincialis, 15 h, 15 h
[12] = NRRLB11177, 0.25 h, V. fischeri luminescence, 15 min contact, read-out: EC50 15min
[13] = NRRLB11177, 0.5 h, V. fischeri luminescence, 30 min contact, read-out: EC50 30min

T1 sequence (O42275 24-633): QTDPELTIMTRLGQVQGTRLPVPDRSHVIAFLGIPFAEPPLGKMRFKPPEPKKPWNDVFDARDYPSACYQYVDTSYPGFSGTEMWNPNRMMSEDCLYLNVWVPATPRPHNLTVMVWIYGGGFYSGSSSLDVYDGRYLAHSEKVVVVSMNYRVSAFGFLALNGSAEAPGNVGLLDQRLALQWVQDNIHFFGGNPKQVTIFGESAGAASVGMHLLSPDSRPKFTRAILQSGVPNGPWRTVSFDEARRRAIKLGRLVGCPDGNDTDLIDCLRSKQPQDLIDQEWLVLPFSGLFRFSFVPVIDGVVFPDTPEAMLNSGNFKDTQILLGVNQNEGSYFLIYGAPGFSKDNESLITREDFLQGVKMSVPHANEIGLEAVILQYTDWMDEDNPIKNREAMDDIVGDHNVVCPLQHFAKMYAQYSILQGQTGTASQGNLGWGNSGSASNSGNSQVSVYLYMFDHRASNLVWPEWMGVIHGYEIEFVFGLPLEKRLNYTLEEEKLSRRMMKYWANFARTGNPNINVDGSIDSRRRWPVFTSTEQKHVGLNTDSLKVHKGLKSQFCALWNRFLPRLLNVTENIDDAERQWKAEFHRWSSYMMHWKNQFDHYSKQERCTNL

SMILES: O=c1c2ccc(OCc3cn([C@@H]4O[C@H](COS(=O)(=O)O)[C@H](OS(=O)(=O)O)[C@H](OS(=O)(=O)O)[C@H]4OS(=O)(=O)O)nn3)cc2oc2cc(OCc3cn([C@@H]4O[C@H](COS(=O)(=O)O)[C@H](OS(=O)(=O)O)[C@H](OS(=O)(=O)O)[C@H]4OS(=O)(=O)O)nn3)ccc12 [Compound 7, 3,6-bis(1-(1-(β-D-galatopyranosyl)-1H-1,2,3-triazole-4-yl)methoxy)xanthone persulfate]
- Anti-settlement activity in screening (result in words) ([1]; 15 h): not active

SMILES: [K+].[K+].[O]=[Cr](=[O])([O-])[O][Cr](=[O])(=[O])[O-] [K2Cr2O7, Potassium dichromate, reference compound]
- EC50 30min [2, 9]: 5.67 µg/mL
- EC80 30min [2, 9]: 16.73 µg/mL

SMILES: N#Cc1c(-c2ccc(Cl)cc2)[nH]c(C(F)(F)F)c1Br [ECONEA®]
- Mortality/toxicity to target species plantigrades ([1]; all tested concentrations up to 500 μM): showed some toxicity at the higher concentrations tested
- LC50 ([1]; mortality of plantigrades, 15 h, up to 500 μM, read-out: LC50, the median lethal dose): 108 µM
- EC50, minimum concentration that inhibited 50% of larval settlement ([1]; 15 h): 1.40 µg/mL
- EC50 ([1]; 15 h, 1.56–500 μM): 4.01 µM

SMILES: C[C@@H]1O[C@@H](OC[C@H]2O[C@@H](Oc3c(-c4ccc(OCCOS(=O)(=O)O)c(OCCOS(=O)(=O)O)c4)oc4cc(OCCOS(=O)(=O)O)cc(O)c4c3=O)[C@H](OS(=O)(=O)O)[C@@H](OS(=O)(=O)O)[C@@H]2OS(=O)(=O)O)[C@H](OS(=O)(=O)O)[C@H](OS(=O)(=O)O)[C@H]1OS(=O)(=O)O [Compound 3, 3″,4″-bis(2-sulfateethoxy)-7-(2-sulfateethoxy)-rutin 2″,2″′,3′,3″′,4′,4″′,7-sulfate]
- Anti-settlement activity in screening (result in words) ([1]; 15 h): did not show notable activity

SMILES: O=C(O)c1cc(OS(=O)(=O)O)c(OS(=O)(=O)O)c(OS(=O)(=O)O)c1 [Compound 12, gallic acid persulfate]
- LC50 at 15 h [3]: > 500 µM
- Anti-settlement activity in screening (result in words) ([1]; 15 h): significant anti-settlement responses at 50 μM
- EC50 [1, 10]: 17.7 µM
- EC50 [1, 11]: 8.95 µg/mL
- Concentration range with significant anti-settlement activity [1]: 12.5 to 500 µM
- EC50, minimum concentration that inhibited 50% of larval settlement ([1]; 15 h): 8.4 µg/mL
- Concentration detected relative to the initial one (seawater stability) [4]: at least 95%
- Acetylcholinesterase activity inhibition [5]: not inhibited
- Tyrosinase activity inhibition [6]: not inhibited
- Mortality of Artemia salina (Artemia salina nauplii): < 10%
- Mortality of A. salina nauplii (Artemia salina nauplii): less than 10%
- Toxicity to A. salina (Artemia salina nauplii): no toxicity
- CC50 [7]: > 1000 µg/mL
- Inhibition of light radiation emitted by V. fischeri [2]: no inhibition of light radiation emitted was found; also recorded: lack of light radiation inhibition
- EC50 [2, 12]: > 1000 µg/mL
- EC50 [2, 13]: > 1000 µg/mL
- Water solubility [8]: highly water soluble

SMILES: O=c1c2ccc(O[C@@H]3O[C@H](COS(=O)(=O)O)[C@@H](OS(=O)(=O)O)[C@H](OS(=O)(=O)O)[C@H]3OS(=O)(=O)O)cc2oc2cc(O[C@@H]3O[C@H](COS(=O)(=O)O)[C@@H](OS(=O)(=O)O)[C@H](OS(=O)(=O)O)[C@H]3OS(=O)(=O)O)ccc12 [Compound 6]
- LC50 at 15 h [3]: > 500 µM
- Anti-settlement activity in screening (result in words) ([1]; 15 h): significant anti-settlement responses at 50 μM; also recorded: highly active
- EC50 [1, 10]: 23.2 µM
- EC50 [1, 11]: 31.7 µg/mL
- Concentration range with significant anti-settlement activity [1]: 25 to 500 µM
- Concentration detected relative to the initial one (seawater stability) [4]: at least 95%
- Acetylcholinesterase activity inhibition [5]: not inhibited
- Tyrosinase activity inhibition [6]: not inhibited
- Mortality of Artemia salina (Artemia salina nauplii): < 10%
- Mortality of A. salina nauplii (Artemia salina nauplii): less than 10%
- Toxicity to A. salina (Artemia salina nauplii): no toxicity
- CC50 [7]: > 1000 µg/mL
- Inhibition of light radiation emitted by V. fischeri [2]: no inhibition of light radiation emitted was found; also recorded: lack of light radiation inhibition
- EC50 [2, 12]: > 1000 µg/mL
- EC50 [2, 13]: > 1000 µg/mL
- Water solubility [8]: highly water soluble

SMILES: O=C(O)c1cc(O)c(O)c(O)c1 [Compound 15, gallic acid, reference compound]
- Anti-settlement activity in screening (result in words) ([1]; 15 h): did not show significant anti-settlement activity; also recorded: not active

SMILES: C[C@@H]1O[C@@H](OC[C@H]2O[C@@H](Oc3c(-c4ccc(O)c(O)c4)oc4cc(O)cc(O)c4c3=O)[C@H](O)[C@@H](O)[C@@H]2O)[C@H](O)[C@H](O)[C@H]1O [Compound 14, rutin, reference compound]
- Anti-settlement activity in screening (result in words) ([1]; 15 h): did not show significant anti-settlement activity; also recorded: not active

SMILES: O=C(/C=C/c1ccc(OS(=O)(=O)O)c(OS(=O)(=O)O)c1)O[C@@H]1C[C@](OS(=O)(=O)O)(C(=O)O)C[C@@H](OS(=O)(=O)O)[C@H]1OS(=O)(=O)O [Compound 13, chlorogenic acid persulfate]
- Anti-settlement activity in screening (result in words) ([1]; 15 h): much less potent than compound 12
